According to patent publication US7741280B2, “Multimeric molecules, the preparation method thereof and use of same for the preparation of medicaments” (Centre National de la Recherche Scientifique, priority 2002, dated 2010):
Where two headings read alike, the source gives them in different places. Where a SMILES comes first, the peptide text is derived from it. Bridges are numbered along the chain shown (N, C = ends). Roman numbers before positions name the chains, in order. Where no end group is shown, it is not given here. Side-chain parts run from the residue outwards. [ ]: non-standard residue; d: D form. Ahx = NCCCCCC(=O)O

Assays:
CD40-CD40L interaction = target: T1, CD40-CD40L interaction (Homo sapiens, UniProt P25942); assay: Expression of CD95 induced by CD40L on BL41 cells cultured with 3T6-CD40L fibroblasts (flow cytometry); type: cell-based; conditions: for % of inhibition of the expression of CD95 induced by CD40L: BL41 + 3T6-CD40L, 48 hours
T1 construct: they receive a signal via the CD40 molecule, which they express in a constitutive manner; endogenous in cells; host or cells: BL41 Burkitt's lymphoma cells (endogenous CD40), co-cultured with 3T6 fibroblasts transfected with CD40L
Protocol: Then, the affinity of these ligands for the CD40 molecule is evaluated using a biosensor (BIAcore™). The agonist or antagonist effect of the ligands was tested using two simple biological tests. In the first, the expression of the membranous molecule CD95 by transformed B cells (Burkitt's lymphoma) is studied after activation by the CD40-CD40L interaction (Schattner et al., 1996). In such a model, the CD40L partner is expressed on transfected fibroblasts (3T6-CD40L) (Buelens et al., 1997). The BL41 Burkitt's lymphoma cells are incubated with non-transfected 3T6 fibroblasts (FIGS. 3A and 3C) or with 3T6 fibroblasts transfected by CD40L (FIGS. 3B and 3D). After 48 hours, the expression of CD95 is evaluated by flow cytometry. The expression of CD95 is induced in the presence of CD40L (FIG. 3B). A commercial anti-CD40L antibody inhibits the consequences of the CD40-CD40L interaction (FIG. 3D).
The antagonist effect is evaluated by measurement of the decrease in the expression of CD95 induced by the CD40L in the presence of the different chemical ligands (see Table I). With the help of these tests, the most interesting ligands are chosen to evaluate their activity in vivo and in vitro in more complex models.
The lymphoma B cells express the CD95 molecule when they receive a signal via the CD40 molecule, which they express in a constitutive manner. This signal is generally conveyed by the CD40L (CD154) molecule expressed by another cell. The antagonist ligands inhibit the binding of CD40 on CD40L and thus […] the expression of CD95. The agonist ligands copy the CD40L molecule and induce the expression of CD95 even in the absence of the cell expressing CD40L.
The BL41 Burkitt's lymphoma cells (5.10^5/ml) are cultured in the presence of 3T6 fibroblasts (10^5/ml) transfected (3T6-CD40L) or not transfected with CD40L (3T6), and treated with mitomycin to stop their proliferation. The ligands are added at the start of the culture at the chosen concentration. After culture for 48 hours, expression of the CD95 molecule is measured by flow cytometry. The BL41 cells are distinguished from the fibroblasts using an anti-CD19 antibody (specific marker of the B cells).

[1] = target: T2, human CD40 muIg fusion protein (UniProt P01863+P25942); assay: Biacore3000 surface plasmon resonance study of the CD40/CD40L interaction and the ligands; type: binding
T2 construct: purchased ANCELL Corporation, Bayport, Minn
Description: The Biacore3000 is a device which allows the interactions between two molecules to be studied, based on the surface plasmon resonance. It allows measurement in real time, and therefore allows the kinetics of interaction (association and disassociation) of an analyte (which is in an injected solution) and of a ligand (immobilised on a microchip supporting the measurement) to be monitored. The kinetic measurements at different concentrations of analyte allow calculation of the affinity constants of the interaction between the ligand and the analytes. The microchip contains four cells for different measurements, which allows direct comparison of a reference cell on which a protein which is not pertinent (protein which has no affinity with the ligand studied), but close to the ligand is immobilised with the cell on which the ligand is immobilised.
Rabbit antibodies directed against the constant region of mouse immunoglobulins were immobilized on a microchip. In the reference cell a monoclonal mouse antibody of isotype IgG2a (LG112) at 40 nM is immobilized with a flow of 5 μL/min for 2 minutes; in the cell of the ligand the recombinant CD40 associated with the constant region of the mouse IgG2a heavy chain (human CD40 muIg fusion protein, ANCELL Corporation, Bayport, Minn.) is immobilized under the same conditions.
On the two cells (reference and ligand), the CD40L (human CD154 muCD8 fusion protein, ANCELL Corporation) at different concentrations or the CD40L at a concentration of 1 μM or of 125 nM, are injected, as analyte, in the presence of different concentrations of ligands. The flow in the presence of the analytes is 10 μL/min for 5 minutes to study the association and, in the absence of analytes, the conditions are the same to study the dissociation.
In order to regenerate the cells (i.e. remove all the proteins adsorbed in a non-covalent manner), a solution of 10 mM of HCl is injected at 5 μL/min for 1 minute. The cells are then ready for another analysis.

[2] = tested on: BL41 Burkitt's lymphoma cells; assay: Inhibition of proliferation of BL41 cells (incorporation of tritiated thymidine); type: cell-based; conditions: 24 hours culture, FIG. 4A, 50 μM to 50 nM
Protocol: Tritiated thymidine was added at a concentration of 1 μci/well (0.8.10^5 cells/well) for the last 8 hours of culture and the incorporation of tritiated thymidine measured using a gaseous scintillation β counter.
The second test is based on the property of certain B lymphomas to cease proliferation and enter apoptosis during the bridging of their membranous CD40 molecule (Tong et al., 1999). In this test, the BL41 cells are incubated with ligands CD40 and after 24 hours either the inhibition of proliferation of these cells is measured, by studying the incorporation of tritiated thymidine, or the percentage of apoptotic cells is measured with a flow cytometry study (FIGS. 4A and 4B).
Certain B lymphomas enter apoptosis when their CD40 molecule is bridged by an anti-CD40 antibody or by CD40L which is soluble independently from the CD95 molecule. This induction of apoptosis is expressed as a decrease in proliferation measured by the incorporation of tritiated thymidine. The agonist ligands of CD40 will induce an increase in apoptosis and as a result a decrease in the incorporation of tritiated thymidine.
The BL41 Burkitt's lymphoma cells (4.10^5/mL) are cultured in the presence of the different ligands at the chosen concentration. After 24 hours, the cells are either incubated for 8 hours with tritiated thymidine (1 μci/well) to measure the proliferation or are labelled with Annexin V-FITC and propidium iodide to evaluate the percentage of apoptotic cells with flow cytometry.

[3] = target: CD40 molecule expressed constitutively by BL41 Burkitt's lymphoma cells (UniProt P25942); assay: cell-based or functional assay
Chain of CD40 molecule expressed constitutively by BL41 Burkitt's lymphoma cells (P25942 21-277 limits assumed): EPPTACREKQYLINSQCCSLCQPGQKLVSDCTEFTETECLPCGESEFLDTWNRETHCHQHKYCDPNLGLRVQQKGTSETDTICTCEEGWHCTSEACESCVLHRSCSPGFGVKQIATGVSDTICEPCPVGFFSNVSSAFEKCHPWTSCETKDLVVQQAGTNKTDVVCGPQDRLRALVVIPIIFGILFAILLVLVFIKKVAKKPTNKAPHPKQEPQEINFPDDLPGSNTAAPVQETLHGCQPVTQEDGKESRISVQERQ

T1 sequence (P25942 21-277): as the sequence (P25942 21-277 limits assumed) above
T2 sequence (P25942+P01863 fused): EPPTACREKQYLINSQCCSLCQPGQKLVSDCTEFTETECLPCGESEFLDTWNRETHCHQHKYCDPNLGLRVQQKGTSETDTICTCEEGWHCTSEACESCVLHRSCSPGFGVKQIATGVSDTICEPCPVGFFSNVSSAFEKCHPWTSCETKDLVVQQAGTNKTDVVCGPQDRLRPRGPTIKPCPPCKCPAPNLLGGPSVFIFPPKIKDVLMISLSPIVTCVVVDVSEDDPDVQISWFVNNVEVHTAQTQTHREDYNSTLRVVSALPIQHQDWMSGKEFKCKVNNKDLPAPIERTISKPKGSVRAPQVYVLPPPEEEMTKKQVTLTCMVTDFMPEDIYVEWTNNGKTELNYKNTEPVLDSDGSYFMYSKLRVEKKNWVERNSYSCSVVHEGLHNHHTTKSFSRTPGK

C[C@H](NC(=O)[C@H](CCCCNC(=O)[C@H](CCCCNC(=O)[C@H](CCCCNC(=O)[C@H](CCCCNC(=O)[C@H](CCCNC(=N)N)NC(=O)[C@@H]1CCCN1C[C@@H](N)CCCCN)NC(=O)[C@H](CCCNC(=N)N)NC(=O)[C@@H]1CCCN1C[C@@H](N)CCCCN)NC(=O)[C@H](CCCNC(=N)N)NC(=O)[C@@H]1CCCN1C[C@@H](N)CCCCN)NC(=O)[C@H](CCCNC(=N)N)NC(=O)[C@@H]1CCCN1C[C@@H](N)CCCCN)NC(=O)[C@H](CCCNC(=N)N)NC(=O)[C@@H]1CCCN1C[C@@H](N)CCCCN)C(=O)O [L1]
% of inhibition of the expression of CD95 induced by CD40L (CD40-CD40L interaction; ligand 25 μM): 0% | % of inhibition of the expression of CD95 induced by CD40L (CD40-CD40L interaction; ligand 50 μM): 43% | % of inhibition of the expression of CD95 induced by CD40L (CD40-CD40L interaction; ligand 100 μM): 60% | Kd ([1]; analyte CD40L at 1 μM and L1 at 50 μM, read-out: equilibrium constant): > 50000 nM

CC(=O)NCCCC[C@H](NC(C)=O)C(=O)NCCCCC(NC(C)=O)C(=O)NCCCC[C@H](NC(C)=O)C(=O)NCCCC[C@H](NC(C)=O)C(=O)N[C@@H](C)C(=O)O (stereo partly drawn) [L2]
effect on the expression of CD95 induced by CD40L (in words) (CD40-CD40L interaction; BL41 cells in the presence of 3T6-CD40L cells, no concentration stated): no effect | % of inhibition of the expression of CD95 induced by CD40L (CD40-CD40L interaction; ligand 25 μM): 0% | % of inhibition of the expression of CD95 induced by CD40L (CD40-CD40L interaction; ligand 50 μM): 0% | % of inhibition of the expression of CD95 induced by CD40L (CD40-CD40L interaction; ligand 100 μM): 0%

C[C@H](NC(=O)[C@H](CCCCNC(=O)[C@H](CCCCNC(=O)[C@H](CCCCNC(=O)[C@H](CCCCNC(=O)[C@H](Cc1ccc(O)cc1)NC(=O)[C@H](Cc1ccc(O)cc1)NC(=O)CNC(=O)[C@@H](N)CCCCN)NC(=O)[C@H](Cc1ccc(O)cc1)NC(=O)[C@H](Cc1ccc(O)cc1)NC(=O)CNC(=O)[C@@H](N)CCCCN)NC(=O)[C@H](Cc1ccc(O)cc1)NC(=O)[C@H](Cc1ccc(O)cc1)NC(=O)CNC(=O)[C@@H](N)CCCCN)NC(=O)[C@H](Cc1ccc(O)cc1)NC(=O)[C@H](Cc1ccc(O)cc1)NC(=O)CNC(=O)[C@@H](N)CCCCN)NC(=O)[C@H](Cc1ccc(O)cc1)NC(=O)[C@H](Cc1ccc(O)cc1)NC(=O)CNC(=O)[C@@H](N)CCCCN)C(=O)O [L3] (I: H-KGYYKA-OH / II: H-KGYYK([Tyr-Tyr-Gly-Lys]) / III: H-KGYYK / IV: H-KGYYK; amide I:5-IV:C, II:C-III:5, III:C-IV:5)
% of inhibition of the expression of CD95 induced by CD40L (CD40-CD40L interaction; ligand 5 μM): 0% | % of inhibition of the expression of CD95 induced by CD40L (CD40-CD40L interaction; ligand 10 μM): 13% | % of inhibition of the expression of CD95 induced by CD40L (CD40-CD40L interaction; ligand 25 μM): 25% | % of inhibition of the expression of CD95 induced by CD40L (CD40-CD40L interaction; ligand 50 μM): 62% | % of inhibition of the expression of CD95 induced by CD40L (CD40-CD40L interaction; ligand 100 μM): 60%

NCCCC[C@H](N)C(=O)NCC(=O)N[C@@H](Cc1ccc(O)cc1)C(=O)N[C@@H](Cc1ccc(O)cc1)C(=O)NCCCCCC(=O)NCCCC[C@H]1CC(=O)N[C@@H](CCCCNC(=O)CCCCCNC(=O)[C@H](Cc2ccc(O)cc2)NC(=O)[C@H](Cc2ccc(O)cc2)NC(=O)CNC(=O)[C@@H](N)CCCCN)CC(=O)N[C@@H](CCCCNC(=O)CCCCCNC(=O)[C@H](Cc2ccc(O)cc2)NC(=O)[C@H](Cc2ccc(O)cc2)NC(=O)CNC(=O)[C@@H](N)CCCCN)CC(=O)N1 [L9]
IC50 ([1]; in the presence of 100 nM of CD40L, read-out: inhibition of 50% of the binding of CD40L (IC50)): < 50 nM | equilibrium constant compared with L4 ([1]; inferred from IC50, same conditions as L4): less than that of L4

L7-2: L7 analogue with the reverse sequence H-Tyr-Tyr-Gly-Lys- (YYGK)
inhibition of the proliferation of BL41 cells (in words) [2]: only have a small or no effect

L12: from linear 8-B core coupled with pentapeptide 1-A; linear version of L9 (chain Lys-Lys-Lys; peptide KGYY; not fully specified (some residues, C-terminus); also: peptide (pentapeptide 1-A) coupled to linear core 8-B, linkage and core structure not given here)
binding to CD40 and displacement of CD40L (in words) ([1]; in the presence of 100 nM of CD40L): Only the L4 and L9 molecules bind to CD40

B1: CD40L: human CD154 muCD8 fusion protein, ANCELL Corporation (protein)
chain: KPQAPELRIFPKKMDAELGQKVDLVCEVLGSVSQGCSWLFQNSSSKLPQPTFVVYMASSHNKITWDEKLNSSKLFSAMRDTNNKYVLTLNKFSKENEGYYFCSVISNSVMYFSSVVPVLQKVNSTTTKPVLRTPSPVHPTGTSQPQRPEDCRPRGSVKGTGLDFACDIYHRRLDKIEDERNLHEDFVFMKTIQRCNTGERSLSLLNCEEIKSQFEGFVKDIMLNKEETKKENSFEMQKGDQNPQIAAHVISEASSKTTSVLQWAEKGYYTMSNNLVTLENGKQLTVKRQGLYYIYAQVTFCSNREASSQAPFIASLCLKSPGRFERILLRAANTHSSAKPCGQQSIHLGGVFELQPGASVFVNVTDPSQVSHGTGFTSFGLLKL
Kd ([1]; 4 concentrations of CD40L from 62.5 to 500 nM, read-out: equilibrium constant of CD40L for CD40): 54 nM

B2: Compound L2 (ligand L2), core structure of the ligands L1 and L3 (peptide)
chain: KKKKA
modifications: also: four Lys joined through epsilon-amines (isopeptide bonds), free amine groups acetylated
% of inhibition of the expression of CD95 induced by CD40L, ligand at 25 µM [3]: 0% | % of inhibition of the expression of CD95 induced by CD40L, ligand at 50 µM [3]: 0% | % of inhibition of the expression of CD95 induced by CD40L, ligand at 100 µM [3]: 0%

B3: Compound L4a (ligand L4a): same core molecule as L4 with only 2 examples of the peptide sequence (peptide)
chain: [dA]K[dA]K[dA]K
peptide: H-KGYY[Ahx]
modifications: also: two copies of chain 2 linked via Ahx to epsilon-amines of two core Lys, which Lys not given here, further groups not given here, head-to-tail to a chain's N/C-terminus
% of inhibition of the expression of CD95 induced by CD40L, ligand at 0.5 µM [3]: 0% | % of inhibition of the expression of CD95 induced by CD40L, ligand at 5 µM [3]: 8% | % of inhibition of the expression of CD95 induced by CD40L, ligand at 50 µM [3]: 13%
